≈ marks a conversion by molar mass, not a printed value.
Tests used:
[1] = tested on: HEL; assay: In vitro inhibitory concentration for antiviral activity was tested against HEL cells; assay type: functional, cell-based; details: Homo sapiens
[2] = tested on: HeLa; assay: In vitro inhibitory concentration for cytotoxic activity was tested against HeLa cells; assay type: functional, cell-based; details: Homo sapiens
[3] = tested on: HEL; assay: (§1) In vitro minimum inhibitory concentration for antiviral activity was tested against Varicella-Zoster virus(VZV); assay type: functional; details: Homo sapiens
[4] = tested on: Vero; assay: (§2) In vitro minimum inhibitory concentration for antiviral activity was tested against Herpes simplex virus type 1(HSV-1); assay type: functional; details: Chlorocebus sabaeus
[5] = tested on: Vero; assay: In vitro inhibitory concentration for antiviral activity was tested against vero cells; assay type: functional, cell-based; details: Chlorocebus sabaeus
[6] = tested on: Human alphaherpesvirus 3; assay: as §1; assay type: functional
[7] = tested on: Human alphaherpesvirus 1; assay: as §2; assay type: functional

| SMILES | IC50 [1] [µg/mL] | IC50 [2] [µg/mL] | MIC [3] [µg/mL] | MIC [4] [µg/mL] | IC50 [5] [µg/mL] | MIC [6] [µg/mL] | MIC [7] [µg/mL] |
| --- | --- | --- | --- | --- | --- | --- | --- |
| C=C1C[C@@H](C)O[C@@](OC)([C@H](O)C(=O)N[C@@H]2OCO[C@H]3[C@@H]2O[C@H](C[C@H](O)CO)C(C)(C)[C@@H]3OC)C1 | > 50 | 3 (≈ 6.13 µM) | 1.56 (≈ 3.19 µM) | 50 (≈ 102 µM) | 50 (≈ 102 µM) |  |  |
| CO[C@@H]1[C@H]2OCO[C@H](NC(=O)[C@@H](O)[C@@]3(OC)CCC[C@@H](C)O3)[C@H]2O[C@H](C[C@H](O)CO)C1(C)C | 1.56 (≈ 3.27 µM) | 0.03 (≈ 0.0628 µM) | < 0.391 | 3.12 (≈ 6.54 µM) | 0.391 (≈ 0.819 µM) |  |  |
| C=C1C[C@@H](C)O[C@@](OC)([C@H](O)C(=O)N[C@H]2OCO[C@H]3[C@@H]2O[C@H](C[C@H](O)CO)C(C)(C)[C@@H]3OC)C1 | < 0.391 | < 0.03 | < 0.391 | < 0.391 | < 0.391 |  |  |
| C=C1C[C@](OC)([C@H](O)C(=O)N[C@H]2OCO[C@@H]3[C@@H](OC)[C@H](O)[C@@H](CO)O[C@@H]32)O[C@H](C)[C@@H]1C | > 50 | 1 (≈ 2.23 µM) | 3.12 (≈ 6.98 µM) | 25 (≈ 55.9 µM) | 25 (≈ 55.9 µM) |  |  |
| C=C1C[C@](OC)([C@H](O)C(=O)N[C@H]2OCO[C@@H]3[C@@H](OC)[C@@H]4OC(C)(C)OC[C@H]4O[C@@H]32)O[C@H](C)[C@@H]1C | > 50 | 3 (≈ 6.15 µM) |  |  | > 50 | 12.5 (≈ 25.6 µM) | 50 (≈ 103 µM) |
| C=C1C[C@](OC)([C@@H](O)C(=O)N[C@@H]2OCO[C@H]3[C@@H]2O[C@H](C[C@H](O)CO)C(C)(C)[C@@H]3OC)O[C@H](C)[C@@H]1C | > 50 | > 10 | 12.5 (≈ 24.8 µM) | 50 (≈ 99.3 µM) | > 50 |  |  |
| Nc1nc2c(ncn2COCCO)c(=O)[nH]1 [ACYCLOVIR] | > 50 |  |  |  | 50 (≈ 222 µM) |  | 1.56 (≈ 6.94 µM) |
| C=C1C[C@](OC)([C@H](O)C(=O)N[C@@H]2OCO[C@@H]3[C@@H](OC)[C@@H]4OC(C)(C)OC[C@H]4O[C@@H]32)O[C@H](C)[C@@H]1C | > 50 | 10 (≈ 20.5 µM) |  |  | 50 (≈ 103 µM) | 12.5 (≈ 25.6 µM) | 50 (≈ 103 µM) |
| C=C1C[C@](OC)([C@H](O)C(=O)N[C@H]2OCO[C@H]3[C@@H]2O[C@H](C[C@H](O)CO)C(C)(C)[C@@H]3OC)O[C@H](C)[C@@H]1C [MYCALAMIDE A] | < 0.391 | < 0.03 | < 0.391 | < 0.391 | < 0.391 |  |  |
| O=c1[nH]cc(F)c(=O)[nH]1 [FLUOROURACIL] |  | 3 (≈ 23.1 µM) |  |  |  |  |  |
| CO[C@@H]1[C@H]2OCO[C@@H](NC(=O)[C@@H](O)[C@@]3(OC)CCC[C@@H](C)O3)[C@H]2O[C@H](C[C@H](O)CO)C1(C)C | > 50 | > 10 | 3.12 (≈ 6.54 µM) | 50 (≈ 105 µM) | > 50 |  |  |
| C=C1C[C@](OC)([C@H](O)C(=O)N[C@@H]2OCO[C@@H]3[C@@H](OC)[C@H](O)[C@@H](CO)O[C@@H]32)O[C@H](C)[C@@H]1C | > 50 | > 10 | 25 (≈ 55.9 µM) | > 50 | > 50 |  |  |
| C=C1C[C@](OC)([C@@H](O)C(=O)N[C@H]2OCO[C@H]3[C@@H]2O[C@H](C[C@H](O)CO)C(C)(C)[C@@H]3OC)O[C@H](C)[C@@H]1C | 12.5 (≈ 24.8 µM) | > 10 | < 0.391 | 50 (≈ 99.3 µM) | 12.5 (≈ 24.8 µM) |  |  |
| C=C1C[C@](OC)([C@H](O)C(=O)N[C@@H]2OCO[C@H]3[C@@H]2O[C@H](C[C@H](O)CO)C(C)(C)[C@@H]3OC)O[C@H](C)[C@@H]1C | 12.5 (≈ 24.8 µM) | 3 (≈ 5.96 µM) | 1.56 (≈ 3.1 µM) | 12.5 (≈ 24.8 µM) | 12.5 (≈ 24.8 µM) |  |  |

— ChEMBL document CHEMBL1130504, “Synthesis and biological activity of artificial analogs of mycalamide A” (Bioorg Med Chem Lett, 1997)
